The values that follow come from patent publication US7714146B2, “Azulene-oxindole compounds as multiple-kinase inhibitors and useful as anticancer agents” (Industrial Technology Research Institute, priority 2006, dated 2010).

As a reminder, the inhibition is the drop in the measured response relative to a control, in per cent. As a reminder, the IC50 is the concentration needed to halve the response being measured.

Holding throughout (assay type): biochemical
Assay [1] has as its target T1, human FLT-3 (Arg571-Ser993) (Homo sapiens, UniProt P36888).
T1 construct: human FLT-3 (Arg571-Ser993); GST (N); purchased Cell Signaling Technology; host or cells: baculovirus expression system
T1 sequence (P36888 571-993): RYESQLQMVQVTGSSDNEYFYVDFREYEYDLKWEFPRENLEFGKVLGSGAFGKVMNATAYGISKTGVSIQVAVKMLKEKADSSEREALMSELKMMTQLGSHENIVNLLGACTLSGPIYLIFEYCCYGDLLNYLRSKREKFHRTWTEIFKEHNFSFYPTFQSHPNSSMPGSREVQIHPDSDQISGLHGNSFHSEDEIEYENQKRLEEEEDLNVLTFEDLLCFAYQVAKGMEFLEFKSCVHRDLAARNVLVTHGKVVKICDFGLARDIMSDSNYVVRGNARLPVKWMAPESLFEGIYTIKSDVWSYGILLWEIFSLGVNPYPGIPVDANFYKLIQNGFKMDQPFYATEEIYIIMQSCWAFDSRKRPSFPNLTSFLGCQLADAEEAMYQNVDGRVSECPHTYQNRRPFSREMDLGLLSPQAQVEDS
As to the kind of experiment: FLT-3 kinase assay (HTScan kit, DELFIA). The conditions noted are these: for inhibition at 0.1 µM: compound at 0.1 μM, read-out: FLT-3 0.1 μM, % of inhibition relative to control; for inhibition at 1 µM: compound at 1 μM, read-out: FLT-3 1 μM, % of inhibition relative to control. In a few lines:
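GST-tagged human FLT-3 (Arg571-Ser993, baculovirus-expressed) phosphorylated 1.5 μM biotinylated gastrin precursor peptide with 20 μM ATP in HEPES pH 7.5, Mg/Mn buffer and 1% DMSO. After 5 min preincubation, the reaction ran 30 min at room temperature. Phosphorylation was read by DELFIA.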

Assay [2] concerns the target T2, human VEGFR-2 (Val789-Val1356) (Homo sapiens, UniProt P35968).
T2 construct: human VEGFR-2 (Val789-Val1356); GST (N); purchased Cell Signaling Technology; host or cells: baculovirus expression system
In words: KDR kinase assay (HTScan VEGFR-2 kit, DELFIA). The conditions noted are these: for inhibition at 1 µM: compound at 1 μM, read-out: KDR 1 μM, % of inhibition relative to control; for inhibition at 0.1 µM: compound at 0.1 μM, read-out: KDR 0.1 μM, % of inhibition relative to control. In a few lines:
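GST-tagged human VEGFR-2 (Val789-Val1356) from baculovirus, with 1.5 μM biotinylated gastrin precursor peptide and 20 μM ATP in HEPES pH 7.5, Mg/Mn, vanadate, DTT, 1% DMSO. Pre-incubation 5 min, reaction 30 min at room temperature; phosphorylation read by DELFIA.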

In assay [3] the target is T3, human EGFR (His672-Ala1210) (Homo sapiens, UniProt P00533).
T3 construct: human EGFR (His672-Ala1210); GST (N); purchased Cell Signaling Technology; host or cells: baculovirus expression system
T3 sequence (P00533 672-1210): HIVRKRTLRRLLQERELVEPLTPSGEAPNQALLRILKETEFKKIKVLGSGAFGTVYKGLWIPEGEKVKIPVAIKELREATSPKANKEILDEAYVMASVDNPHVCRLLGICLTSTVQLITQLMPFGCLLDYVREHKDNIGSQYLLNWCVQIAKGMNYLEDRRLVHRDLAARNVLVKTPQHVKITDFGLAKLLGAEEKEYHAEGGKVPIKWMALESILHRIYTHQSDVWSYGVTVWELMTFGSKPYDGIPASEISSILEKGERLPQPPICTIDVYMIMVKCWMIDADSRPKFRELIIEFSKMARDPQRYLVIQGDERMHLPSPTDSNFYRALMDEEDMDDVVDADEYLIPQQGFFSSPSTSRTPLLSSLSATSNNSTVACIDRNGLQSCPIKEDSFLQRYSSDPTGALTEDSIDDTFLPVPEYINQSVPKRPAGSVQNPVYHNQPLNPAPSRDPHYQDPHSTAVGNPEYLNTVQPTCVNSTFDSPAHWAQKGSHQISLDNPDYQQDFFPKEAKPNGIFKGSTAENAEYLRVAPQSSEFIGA
As to the kind of experiment: EGFR kinase assay (HTScan kit, DELFIA). As to conditions: for inhibition at 0.1 µM: compound at 0.1 μM, read-out: EGFR 0.1 μM, % of inhibition relative to control; for inhibition at 1 µM: compound at 1 μM, read-out: EGFR 1 μM, % of inhibition relative to control. On the procedure: Compounds 1-100 were treated for their efficacy in inhibiting activities of FLT-3, c-KIT, KDR/Flk-1, PDGFR-beta, EGFR, and PKC kinases by biochemical DELFIA (Dissociation Enhanced Lanthanide FIA) assays according to the procedure described below. The assays were conducted by, Division of Cell Engineering, Biomedical Engineering Research Laboratories, Industrial Technology Research Institute, Bldg. 53, 195, sec. 4, Chung Hsing Rd. Chutung, Hsinchu, Taiwan 310, R.O.C.
The EGFR assay was conducted following the protocol described in Protocol for HTScan® EGFR Kinase Assay Kit (Cell Signaling Technology®). The assay was conducted under the following conditions: EGFR source: The GST-kinase fusion protein was produced using a baculovirus expression system with a construct expressing human EGFR (His672-Ala1210) (GenBank Accession No. NM_005228) with an amino-terminal GST tag, substrate: 1.5 μM This biotinylated peptide contains the residues surrounding Tyr-66 of PTP1B, vehicle: 1% DMSO, pre-incubation time/temperature: 5 minutes at room temperature, incubation time/temperature: 30 minutes at room temperature, incubation buffer: 60 mM HEPES pH 7.5, 5 mM MgCl2, 5 mM MnCl2, 3 μM Na3VO4, 1.25 mM DTT, 20 μM ATP, and quantitative method: DELFIA® Assay.

In assay [4] the target is T4, human c-KIT (Thr544-Val976) (Homo sapiens, UniProt P10721).
T4 construct: human c-KIT (Thr544-Val976); GST (N); purchased Cell Signaling Technology; host or cells: baculovirus expression system
T4 sequence (P10721 544-976): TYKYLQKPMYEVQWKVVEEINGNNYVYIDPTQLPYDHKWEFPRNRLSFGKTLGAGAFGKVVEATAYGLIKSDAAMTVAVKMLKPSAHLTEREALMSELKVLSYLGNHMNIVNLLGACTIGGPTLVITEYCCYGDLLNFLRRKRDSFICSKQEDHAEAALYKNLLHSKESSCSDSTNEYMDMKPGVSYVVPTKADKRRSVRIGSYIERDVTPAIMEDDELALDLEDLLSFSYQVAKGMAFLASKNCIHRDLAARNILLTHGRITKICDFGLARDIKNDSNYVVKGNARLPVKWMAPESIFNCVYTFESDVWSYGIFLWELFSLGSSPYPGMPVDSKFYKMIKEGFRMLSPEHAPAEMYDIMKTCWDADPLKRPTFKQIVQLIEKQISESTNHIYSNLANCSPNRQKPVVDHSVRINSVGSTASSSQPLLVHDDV
As to the kind of experiment: c-KIT kinase assay (HTScan kit, DELFIA). As to conditions: for inhibition at 0.1 µM: compound at 0.1 μM, read-out: c-KIT 0.1 μM, % of inhibition relative to control; for inhibition at 1 µM: compound at 1 μM, read-out: c-KIT 1 μM, % of inhibition relative to control. In a few lines: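 GST-tagged human c-KIT (Thr544-Val976) from baculovirus, with 1.5 μM biotinylated KDR Tyr-996 peptide and 20 μM ATP in HEPES pH 7.5 buffer containing Mg2+/Mn2+ and 1% DMSO. Enzyme and compound pre-incubated 5 min, reaction run 30 min at room temperature; phosphorylation detected by DELFIA.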

T2 sequence (P35968 789-1356): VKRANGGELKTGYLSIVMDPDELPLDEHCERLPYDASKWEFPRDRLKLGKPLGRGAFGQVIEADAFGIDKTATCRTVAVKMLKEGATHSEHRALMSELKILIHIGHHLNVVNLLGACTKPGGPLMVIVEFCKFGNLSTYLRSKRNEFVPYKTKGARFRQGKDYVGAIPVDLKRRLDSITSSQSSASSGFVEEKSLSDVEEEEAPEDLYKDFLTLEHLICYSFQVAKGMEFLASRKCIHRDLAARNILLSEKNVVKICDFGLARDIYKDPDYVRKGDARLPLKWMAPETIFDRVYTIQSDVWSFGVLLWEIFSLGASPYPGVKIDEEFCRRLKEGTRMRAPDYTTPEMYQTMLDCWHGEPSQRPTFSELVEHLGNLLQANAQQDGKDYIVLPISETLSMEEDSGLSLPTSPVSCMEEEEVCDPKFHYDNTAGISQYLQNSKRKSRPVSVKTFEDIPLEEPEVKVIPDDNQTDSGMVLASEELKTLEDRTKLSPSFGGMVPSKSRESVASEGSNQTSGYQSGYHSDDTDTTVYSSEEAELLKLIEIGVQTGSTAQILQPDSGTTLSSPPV

With `Cc1cc(/C=C2\C(=O)Nc3ccc(F)cc32)c2cccccc1-2` [Compound 39, 5-Fluoro-3-(3-methyl-azulen-1-ylmethylene)-1,3-dihydro-indol-2-one], the inhibition at 0.1 µM in assay [1] turned out to be 45.6%; in assay [3], 6.1%; in assay [4] it was 80.1%. Moreover, the inhibition at 1 µM in assay [1] stood at 93.2%; in assay [2], 20.2%; in assay [3], 14.1%; in assay [4], 80.1%. The IC50 in assay [1] (read-out: FLT-3 kinase inhibition (IC50)) was determined as 0.491 µM; in assay [2] (read-out: KDR kinase inhibition (IC50)), 6.38 µM; in assay [4] (read-out: c-KIT kinase inhibition (IC50)) it was 0.129 µM.
For the compound `O=C1Nc2ccc(-c3ccccc3)cc2/C1=C/c1ccc2cccccc1-2` [Compound 34, 3-Azulen-1-ylmethylene-5-phenyl-1,3-dihydro-indol-2-one], the results for the inhibition at 0.1 µM in assay [1], in assay [2] and in assay [3] were 0.8%, 8.9% and 6.1%, respectively. In addition, the inhibition at 1 µM in assay [1] was determined as 1.9%; in assay [2] it was 18.2%; in assay [3] it was 11.7%.
As for `COc1ccc2c(c1)NC(=O)/C2=C\c1ccc2cccccc1-2` [Compound 31, 3-Azulen-1-ylmethylene-6-methoxy-1,3-dihydro-indol-2-one], the inhibition at 1 µM in assay [1] came to 14.9%. Also, the inhibition at 0.1 µM in assay [3] came out at 0.2%.
With `Cc1cc(/C=C2/C(=O)N(Cc3ccccc3)c3ccccc32)c2c(C)ccc(C(C)C)cc1-2` [Compound 13, 1-Benzyl-3-(5-isopropyl-3,8-dimethyl-azulen-1-ylmethylene)-1,3-dihydro-indol-2-one], the inhibition at 0.1 µM in assay [1] amounted to 4.4%; in assay [2], 54.1%; in assay [4], 66.2%. In addition, the figures for the inhibition at 1 µM in assay [1], in assay [2] and in assay [4] were 0.2%, 83.9% and 66.2%, respectively.
Consider `CN(C)Cc1cc(/C=C2/C(=O)Nc3ccccc32)c2cccccc1-2` [Compound 58, 3-(3-Dimethylaminomethyl-azulen-1-ylmethylene)-1,3-dihydro-indol-2-one], for which the inhibition at 0.1 µM in assay [1] stood at 16.5%; in assay [2] it was 12.1%; in assay [4], 18%. Further, the values for the inhibition at 1 µM in assay [1], in assay [2] and in assay [4] were 43.9%, 23.8% and 18%, respectively.
For the compound `Cc1cc(C=C2C(=O)Nc3ccc(C(F)(F)F)cc32)c2ccccc(OCCCN(C)C)c1-2` [Compound 100, 3-[4-(3-Dimethylamino-propoxy)-3-methyl-azulen-1-ylmethylene]-5-trifluoromethyl-1,3-dihydro-indol-2-one], the inhibition at 0.1 µM stood at 64.9% in assay [1], 33.3% in assay [2] and 48.1% in assay [4]. In addition, the results for the inhibition at 1 µM in assay [1], in assay [2] and in assay [4] were 89.1%, 73.2% and 48.1%, respectively.
For `CN(C)c1nc2cccccc-2c1/C=C1/C(=O)Nc2ccccc21` [Compound 35, 3-(2-Dimethylamino-cyclohepta[b]pyrrol-3-ylmethylene)-1,3-dihydro-indol-2-one, with propan-2-ol], in assay [2], the inhibition at 1 µM worked out at 20.3%. Also, in assay [3], the inhibition at 0.1 µM amounted to 9.5% and the inhibition at 1 µM is 12.1%.
In the case of `CC(C)c1cc(C=C2C(=O)Nc3ccc(F)cc32)c2cccccc1-2` [Compound 81, 5-Fluoro-3-(3-isopropyl-azulen-1-ylmethylene)-1,3-dihydro-indol-2-one], the results for the inhibition at 0.1 µM in assay [1], in assay [2] and in assay [4] were 19.1%, 33% and 48.7%, respectively. Moreover, the results for the inhibition at 1 µM in assay [1], in assay [2] and in assay [4] were 43.5%, 36.6% and 48.7%, respectively.
Turning to `Cc1cc(C=C2C(=O)Nc3ccc(F)cc32)c2ccccc(OCCCN3CCN(C)CC3)c1-2` [Compound 96, 5-Fluoro-3-{3-methyl-4-[3-(4-methyl-piperazin-1-yl)-propoxy]-azulen-1-ylmethylene}-1,3-dihydro-indol-2-one], the inhibition at 0.1 µM in assay [1] is 68.9%; in assay [2], 29.3%; in assay [4], 58%. Besides, the inhibition at 1 µM in assay [1] came to 97.2%; in assay [2], 89.8%; in assay [4], 58%.
Consider `O=C1Nc2ccc(F)cc2/C1=C\c1ccc2cccccc1-2` [Compound 25, 3-Azulen-1-ylmethylene-5-fluoro-1,3-dihydro-indol-2-one], for which the inhibition at 0.1 µM in assay [1] was determined as 26.2%; in assay [2], 7.7%; in assay [4] it was 75%. Besides, the inhibition at 1 µM stood at 58.8% in assay [1], 45.7% in assay [2] and 75% in assay [4].
Take `CCc1cc(C=C2C(=O)Nc3ccc(F)cc32)c2cccccc1-2` [Compound 80, 3-(3-Ethyl-azulen-1-ylmethylene)-5-fluoro-1,3-dihydro-indol-2-one]: the inhibition at 0.1 µM turned out to be 17.6% in assay [1], 30.2% in assay [2] and 29.6% in assay [4]. The inhibition at 1 µM in assay [1] came out at 19.7%; in assay [2], 32%; in assay [4], 29.6%.
`Cc1cc(C=C2C(=O)Nc3c(F)cccc32)c2ccccc(OCCCN(C)C)c1-2` [Compound 99, 3-[4-(3-Dimethylamino-propoxy)-3-methyl-azulen-1-ylmethylene]-7-fluoro-1,3-dihydro-indol-2-one]: the values for the inhibition at 0.1 µM in assay [1], in assay [2] and in assay [4] were 7.3%, 28.7% and 34.4%, respectively. In addition, the inhibition at 1 µM amounted to 59.4% in assay [1], 73.9% in assay [2] and 34.4% in assay [4].
For `Nc1cc2cccccc-2c1C=C1C(=O)Nc2ccc(F)cc21` [Compound 64, 3-(2-Amino-azulen-1-ylmethylene)-5-fluoro-1,3-dihydro-indol-2-one], the inhibition at 0.1 µM turned out to be 68.3% in assay [1], 46.5% in assay [2] and 34.2% in assay [4]. The inhibition at 1 µM in assay [1] is 74.9%; in assay [2] it was 47.8%; in assay [4], 34.2%.
In the case of `O=C1Nc2ccc(F)cc2/C1=C\c1ccccc2cccc1-2` [Compound 52, 3-Azulen-4-ylmethylene-5-fluoro-1,3-dihydro-indol-2-one], the inhibition at 0.1 µM in assay [1] came out at 14.1%; in assay [2], 12.6%; in assay [4], 20.2%. For the same compound, the inhibition at 1 µM in assay [1] came to 44.2%; in assay [2] it was 9.1%; in assay [4], 20.2%.
